Data from patent publication EP0091090A2, “Bipyridine substituted imidazolidene copper complex and its use in food-producing animals, and bipyridine, 2,2'-(2-imidazolidinylidene) di-copper complex and use in animals” (INTERNATIONAL MINERALS & CHEMICAL CORPORATION, priority 1982, dated 1983).

Experiments:
[1] = Methane production in growing lambs, respiration calorimetry (Example 4); assay type: in vivo; settings: 75 ppm in diet, 3 days treated feed, versus negative control
Excerpt: Animal Test: The object of this test is to determine the effect of the test compound on methane production in growing animals (ruminants). A decrease in methane production is an indication of increased utilization of the animals' feed supply, and possibly an indication of the effectiveness of the compound as a growth promoter.
Test Procedure: The test animals are housed in special respiration calorimetry facilities during the tests so that all metabolic gases can be collected and measured.
Twelve wether lambs, weighing between 20 and 25 kg, were selected from a group of lambs purchased from the California Livestock Marketing Association. The animals were processed according to standard procedures after arrival, and they were ear tagged for identification purposes and weighed prior to being moved to the respiration calorimetry facility.
Experimental Design - The animals were fed 500 grams of a 30% concentrate diet (Table 4) twice daily.
The Formula IV compound was tested in three animals at a level of 75 ppm. The test period was one week. […] Methane production was monitored during this time. […]
Sample Collection and Analysis - Since only the gas data on methane was of interest, urine and feces were collected daily and discarded. […] These samples were analyzed by gas chromatography to get a qualitative measure of […] production. […]

rumen microflora = test: Batch culture assay for the degradation of starch (Example 3); assay type: cell-based, steers
Excerpt: The subject Formula ^IV compound was also compared to monensin in another rumen fluid batch culture test as set forth below. The test was designed to screen compounds for inhibition of starch breakdown by the rumen microflora. […] It is considered more desirable to avoid degradation of starch in the rumen so that it is passed on into the abomasum where it can be digested more efficiently. […] Test Procedure: Animals - Mature fistulated steers were maintained on concentrate, roughage, or concentrate/ roughage (50/50) rations. Animals were fed twice daily at 8:00 A.M. and 4:00 P.M.
Culture Assays - Approximately two liters of rumen fluid were collected from fistulated animals with the use of a hand pump. The rumen fluid, collected in a stoppered flask, was then immediately taken to the laboratory for processing. Samples were taken at 8:00 A.M. just prior to the first feeding or at 1:00 P.M. (ca. 4-5 hours after the first feeding). Rumen fluid was strained through six layers of cotton gauze cloth into a flask that was flushed with C02 gas. The filtrate was centrifuged for 5 minutes at 100 rpm in a Sorvall centrifuge to remove large particulate material. The supernatant was again passed through six layers of gauze into a flask under C02 gas and stoppered.
Batch Culture Assay for the Degradation of Starch - Twenty-five ml of rumen fluid prepared as above was added to serum vials (Wheaton Glass, 100 ml capacity) containing 0.25-1.00% final concentration starch as an energy substrate in 25 ml batch culture assay buffer. The serum vials were sealed under C02 gas phase, and incubations were carried out for 20-24 hours at 39°C on a New Brunswick rotary shaker (250 rpm). Each experimental vial was done in triplicate. The corn starch used in degradation experiments was previously washed with distilled water several times, filtered through an 8 micron (47 mm) Millipore filter, and dried at 90°C for 24 hours.
At intervals of 0 and 24 hours, the entire contents in vials were centrifuged at 250 rpm for 5 minutes. The supernatants were carefully removed with a pipet and the remaining "starch pellets" resuspended in water and passed through borosilicate glass microfiber prefilters (Millipore AP 20-047-00). Filters were dried in an oven for 24 hours at 90°C, cooled and then weighed. The amount of starch remaining after 24 hours' incubation was compared with the amount present at 0 hours and the per cent of substrate degraded calculated.

Substance: 2,2'-(4,5-diphenyl-2H-imidazol-2-ylidene)bispyridine with CuCl2(1/1) [Formula IV Compound]
- methane production [1]: significant decrease
- starch degraded (rumen microflora; 50 ppm, relative to unincubated control rumen fluid batch culture): 28.7%
- per cent starch degraded (rumen microflora; 75 ppm, relative to unincubated control): 13.9%
